Reference: patent publication US8604217B2, “Compound, a process for its preparation, a pharmaceutical composition, use of a compound, a method for modulating or regulating serine/threonine kinases and a serine/threonine kinases modulating agent” (Selvita S.A., priority 2009, dated 2013)

Key:
Assay in all cases: KinaseProfiler kinase panel
Type in all cases: biochemical
CLK2(h) = CLK2(h) (Homo sapiens (Human), UniProt P49760)
CDK2/cyclinE(h) = CDK2/cyclinE(h) (Homo sapiens (Human), UniProt P24941)
EGFR(T790M, L858R)(h) = EGFR(T790M, L858R)(h) (Homo sapiens (Human), UniProt P00533, L858R/T790M)
CDK3/cyclinE(h) = CDK3/cyclinE(h) (Homo sapiens (Human), UniProt Q00526)
Ret(h) = Ret(h) (Homo sapiens (Human), UniProt P07949)
EGFR(T790M)(h) = EGFR(T790M)(h) (Homo sapiens (Human), UniProt P00533, T790M)
Lck(h) = Lck(h) (Homo sapiens (Human), UniProt P06239)
p70S6K(h) = p70S6K(h) (Homo sapiens (Human), UniProt P23443)
cKit(D816V)(h) = cKit(D816V)(h) (Homo sapiens (Human), UniProt P10721, D816V)
FGFR1(V561M)(h) = FGFR1(V561M)(h) (Homo sapiens (Human), UniProt P11362, V561M)
CHK2(h) = CHK2(h) (Homo sapiens (Human), UniProt O96017)
IKKβ(h) = IKKβ(h) (Homo sapiens (Human), UniProt O14920)
Hck(h) = Hck(h) (Homo sapiens (Human), UniProt P08631)
RIPK2(h) = RIPK2(h) (Homo sapiens (Human), UniProt O43353)
MAPK2(h) = MAPK2(h) (Homo sapiens (Human), UniProt P28482)
Met(Y1248D)(h) = Met(Y1248D)(h) (Homo sapiens (Human), UniProt P08581, Y1248D)
PAK6(h) = PAK6(h) (Homo sapiens (Human), UniProt Q9NQU5)
MELK(h) = MELK(h) (Homo sapiens (Human), UniProt Q14680)
EphB1(h) = EphB1(h) (Homo sapiens (Human), UniProt P54762)
IGF-1R(h), activated = IGF-1R(h), activated (Homo sapiens (Human), UniProt P08069)
ULK2(h) = ULK2(h) (Homo sapiens (Human), UniProt Q8IYT8)
CK1γ3(h) = CK1γ3(h) (Homo sapiens (Human), UniProt Q9Y6M4)
DAPK2(h) = DAPK2(h) (Homo sapiens (Human), UniProt Q9UIK4)
CaMKIδ(h) = CaMKIδ(h) (Homo sapiens (Human), UniProt Q8IU85)
ZIPK(h) = ZIPK(h) (Homo sapiens (Human), UniProt O43293)
PKCβII(h) = PKCβII(h) (Homo sapiens (Human), UniProt P05771)
SAPK2a(h) = SAPK2a(h) (Homo sapiens (Human), UniProt Q16539)
DAPK1(h) = DAPK1(h) (Homo sapiens (Human), UniProt P53355)
EphB4(h) = EphB4(h) (Homo sapiens (Human), UniProt P54760)
DCAMKL2(h) = DCAMKL2(h) (Homo sapiens (Human), UniProt Q8N568)
Plk3(h) = Plk3(h) (Homo sapiens (Human), UniProt Q9H4B4)
Ros(h) = Ros(h) (Homo sapiens (Human), UniProt P08922)
DDR2(h) = DDR2(h) (Homo sapiens (Human), UniProt Q16832)
ALK(h) = ALK(h) (Homo sapiens (Human), UniProt Q9UM73)
Abl(h) = Abl(h) (Homo sapiens (Human), UniProt P00519)
BTK(h) = BTK(h) (Homo sapiens (Human), UniProt Q06187)
Tec(h) activated = Tec(h) activated (Homo sapiens (Human), UniProt P42680)
JAK2(h) = JAK2(h) (Homo sapiens (Human), UniProt O60674)
Aurora-A(h) = Aurora-A(h) (Homo sapiens (Human), UniProt O14965)

CLK2(h), sequence (P49760 whole entry): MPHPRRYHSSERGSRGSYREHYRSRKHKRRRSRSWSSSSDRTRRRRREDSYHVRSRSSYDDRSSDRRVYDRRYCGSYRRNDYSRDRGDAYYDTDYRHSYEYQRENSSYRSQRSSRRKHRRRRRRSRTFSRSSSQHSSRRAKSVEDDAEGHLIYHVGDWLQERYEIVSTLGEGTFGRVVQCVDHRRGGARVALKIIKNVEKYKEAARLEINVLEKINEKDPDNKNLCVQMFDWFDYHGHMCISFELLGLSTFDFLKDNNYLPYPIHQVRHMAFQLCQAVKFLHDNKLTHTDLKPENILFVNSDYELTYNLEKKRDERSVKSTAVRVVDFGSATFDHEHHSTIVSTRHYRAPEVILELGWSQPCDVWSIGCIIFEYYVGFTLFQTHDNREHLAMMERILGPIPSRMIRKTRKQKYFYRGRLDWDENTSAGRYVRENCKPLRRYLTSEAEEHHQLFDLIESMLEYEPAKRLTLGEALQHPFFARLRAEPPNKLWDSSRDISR
IGF-1R(h), activated, sequence (P08069 31-1367): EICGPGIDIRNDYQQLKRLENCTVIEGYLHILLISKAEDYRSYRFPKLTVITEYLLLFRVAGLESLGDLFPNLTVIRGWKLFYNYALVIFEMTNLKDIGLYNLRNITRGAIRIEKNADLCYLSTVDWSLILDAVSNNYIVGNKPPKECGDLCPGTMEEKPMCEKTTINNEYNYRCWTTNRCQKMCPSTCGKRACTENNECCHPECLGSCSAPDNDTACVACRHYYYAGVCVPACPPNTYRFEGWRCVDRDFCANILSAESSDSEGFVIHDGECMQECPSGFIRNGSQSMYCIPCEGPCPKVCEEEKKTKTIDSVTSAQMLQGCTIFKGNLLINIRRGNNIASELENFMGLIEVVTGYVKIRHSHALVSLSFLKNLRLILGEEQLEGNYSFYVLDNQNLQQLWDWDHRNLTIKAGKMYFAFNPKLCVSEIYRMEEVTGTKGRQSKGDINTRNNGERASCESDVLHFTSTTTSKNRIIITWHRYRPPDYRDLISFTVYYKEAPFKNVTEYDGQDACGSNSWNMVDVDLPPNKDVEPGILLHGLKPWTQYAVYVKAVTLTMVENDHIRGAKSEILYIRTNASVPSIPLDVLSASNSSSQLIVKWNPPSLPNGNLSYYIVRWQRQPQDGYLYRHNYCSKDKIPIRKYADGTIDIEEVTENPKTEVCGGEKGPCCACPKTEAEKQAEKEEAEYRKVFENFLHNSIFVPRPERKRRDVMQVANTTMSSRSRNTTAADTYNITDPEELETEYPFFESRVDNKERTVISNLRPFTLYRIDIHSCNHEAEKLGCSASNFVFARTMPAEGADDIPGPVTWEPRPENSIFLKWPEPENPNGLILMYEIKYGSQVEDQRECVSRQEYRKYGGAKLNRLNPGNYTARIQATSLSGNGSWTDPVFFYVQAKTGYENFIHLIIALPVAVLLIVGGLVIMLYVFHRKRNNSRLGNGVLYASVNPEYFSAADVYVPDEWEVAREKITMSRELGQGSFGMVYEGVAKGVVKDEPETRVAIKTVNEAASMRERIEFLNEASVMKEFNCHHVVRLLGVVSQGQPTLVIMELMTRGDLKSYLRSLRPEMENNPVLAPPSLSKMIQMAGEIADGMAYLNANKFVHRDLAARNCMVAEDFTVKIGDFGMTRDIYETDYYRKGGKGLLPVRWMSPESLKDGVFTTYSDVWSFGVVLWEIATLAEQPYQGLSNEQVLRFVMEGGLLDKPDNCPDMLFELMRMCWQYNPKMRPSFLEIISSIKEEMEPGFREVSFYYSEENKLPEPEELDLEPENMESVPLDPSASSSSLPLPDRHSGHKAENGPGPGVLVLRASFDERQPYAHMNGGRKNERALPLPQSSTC
Hck(h), sequence (P08631 whole entry): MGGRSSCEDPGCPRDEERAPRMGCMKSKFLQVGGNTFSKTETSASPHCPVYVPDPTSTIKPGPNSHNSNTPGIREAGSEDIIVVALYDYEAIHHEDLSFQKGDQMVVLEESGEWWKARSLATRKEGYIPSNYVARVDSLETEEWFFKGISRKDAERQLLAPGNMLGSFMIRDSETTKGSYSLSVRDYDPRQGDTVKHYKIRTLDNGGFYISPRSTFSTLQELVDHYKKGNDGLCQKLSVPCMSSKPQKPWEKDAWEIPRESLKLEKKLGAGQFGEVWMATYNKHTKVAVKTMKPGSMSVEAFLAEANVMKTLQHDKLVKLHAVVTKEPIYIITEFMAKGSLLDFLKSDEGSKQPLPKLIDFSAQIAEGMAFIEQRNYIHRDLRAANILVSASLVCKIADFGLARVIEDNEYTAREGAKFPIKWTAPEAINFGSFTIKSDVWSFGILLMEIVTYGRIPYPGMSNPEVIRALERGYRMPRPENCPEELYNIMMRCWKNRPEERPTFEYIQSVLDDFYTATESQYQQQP
JAK2(h), sequence (O60674 whole entry): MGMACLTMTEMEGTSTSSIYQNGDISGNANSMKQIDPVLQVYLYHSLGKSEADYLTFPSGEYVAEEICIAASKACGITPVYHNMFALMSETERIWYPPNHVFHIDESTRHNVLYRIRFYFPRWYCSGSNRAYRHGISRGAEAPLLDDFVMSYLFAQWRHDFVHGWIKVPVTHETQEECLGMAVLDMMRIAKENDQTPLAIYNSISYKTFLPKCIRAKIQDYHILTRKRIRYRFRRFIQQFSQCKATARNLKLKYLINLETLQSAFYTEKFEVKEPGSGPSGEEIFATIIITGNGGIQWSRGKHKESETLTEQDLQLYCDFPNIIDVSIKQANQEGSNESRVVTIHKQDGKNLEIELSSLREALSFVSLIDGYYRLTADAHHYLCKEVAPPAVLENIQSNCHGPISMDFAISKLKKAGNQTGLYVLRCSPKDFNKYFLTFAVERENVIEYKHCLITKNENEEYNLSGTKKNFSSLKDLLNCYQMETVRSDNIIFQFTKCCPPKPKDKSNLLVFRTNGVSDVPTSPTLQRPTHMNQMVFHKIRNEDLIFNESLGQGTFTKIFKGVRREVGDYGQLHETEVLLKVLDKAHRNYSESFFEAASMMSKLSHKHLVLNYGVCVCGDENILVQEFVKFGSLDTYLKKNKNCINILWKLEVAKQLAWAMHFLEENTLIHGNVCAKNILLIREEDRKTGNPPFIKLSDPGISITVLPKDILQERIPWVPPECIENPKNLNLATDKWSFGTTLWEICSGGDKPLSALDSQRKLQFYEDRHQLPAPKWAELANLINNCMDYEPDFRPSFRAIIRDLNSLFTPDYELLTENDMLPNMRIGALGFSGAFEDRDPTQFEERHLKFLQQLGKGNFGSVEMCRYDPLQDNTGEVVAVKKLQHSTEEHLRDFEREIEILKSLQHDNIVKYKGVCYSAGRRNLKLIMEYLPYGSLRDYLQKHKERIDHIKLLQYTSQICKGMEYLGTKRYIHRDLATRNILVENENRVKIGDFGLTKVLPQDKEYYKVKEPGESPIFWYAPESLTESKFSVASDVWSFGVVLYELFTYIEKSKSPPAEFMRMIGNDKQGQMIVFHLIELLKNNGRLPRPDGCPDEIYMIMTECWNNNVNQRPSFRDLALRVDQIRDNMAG
SAPK2a(h), sequence (Q16539 whole entry): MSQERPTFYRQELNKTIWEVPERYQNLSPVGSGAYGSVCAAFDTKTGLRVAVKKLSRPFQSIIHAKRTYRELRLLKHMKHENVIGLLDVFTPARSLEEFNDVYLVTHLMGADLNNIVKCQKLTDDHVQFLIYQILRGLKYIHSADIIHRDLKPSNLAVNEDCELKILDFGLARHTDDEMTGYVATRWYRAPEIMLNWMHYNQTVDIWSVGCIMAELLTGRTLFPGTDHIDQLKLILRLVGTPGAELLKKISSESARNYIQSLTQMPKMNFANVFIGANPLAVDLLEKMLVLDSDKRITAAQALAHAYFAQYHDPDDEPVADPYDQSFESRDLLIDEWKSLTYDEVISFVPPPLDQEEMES
p70S6K(h), sequence (P23443 whole entry): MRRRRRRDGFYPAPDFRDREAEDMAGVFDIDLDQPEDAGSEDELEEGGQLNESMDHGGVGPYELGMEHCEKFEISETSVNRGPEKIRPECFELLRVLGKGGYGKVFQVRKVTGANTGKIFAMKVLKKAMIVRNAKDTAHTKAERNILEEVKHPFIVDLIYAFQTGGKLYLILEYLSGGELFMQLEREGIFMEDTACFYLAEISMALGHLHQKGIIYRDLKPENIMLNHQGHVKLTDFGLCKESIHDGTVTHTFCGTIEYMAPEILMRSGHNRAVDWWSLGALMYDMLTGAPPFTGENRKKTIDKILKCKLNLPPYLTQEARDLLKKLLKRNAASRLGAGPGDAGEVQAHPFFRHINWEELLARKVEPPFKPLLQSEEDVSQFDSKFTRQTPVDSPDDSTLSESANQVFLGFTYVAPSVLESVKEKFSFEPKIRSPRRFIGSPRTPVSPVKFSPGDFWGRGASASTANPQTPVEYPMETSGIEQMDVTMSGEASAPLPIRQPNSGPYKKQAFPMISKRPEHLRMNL
MELK(h), sequence (Q14680 whole entry): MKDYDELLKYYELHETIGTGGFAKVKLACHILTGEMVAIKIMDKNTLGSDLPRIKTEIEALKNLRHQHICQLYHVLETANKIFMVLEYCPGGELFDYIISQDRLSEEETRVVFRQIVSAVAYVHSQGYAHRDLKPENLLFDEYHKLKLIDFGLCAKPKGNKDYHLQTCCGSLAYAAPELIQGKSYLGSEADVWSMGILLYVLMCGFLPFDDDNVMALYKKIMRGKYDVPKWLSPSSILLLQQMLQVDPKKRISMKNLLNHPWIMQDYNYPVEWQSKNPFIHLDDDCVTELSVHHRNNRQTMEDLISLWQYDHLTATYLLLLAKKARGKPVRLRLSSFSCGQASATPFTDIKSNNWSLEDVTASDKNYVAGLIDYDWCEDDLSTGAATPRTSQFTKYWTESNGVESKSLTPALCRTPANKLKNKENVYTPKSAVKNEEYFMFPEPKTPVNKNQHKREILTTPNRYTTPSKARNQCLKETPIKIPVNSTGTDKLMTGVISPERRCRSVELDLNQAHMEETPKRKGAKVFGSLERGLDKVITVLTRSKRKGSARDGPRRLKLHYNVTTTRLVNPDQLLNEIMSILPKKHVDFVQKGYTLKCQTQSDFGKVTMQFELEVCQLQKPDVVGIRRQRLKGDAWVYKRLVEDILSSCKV

CCn1c(N2CCNCC2)nc2c(Br)c(Br)c(Br)c(Br)c21 [Compound 416, 4,5,6,7-tetrabromo-1-ethyl-2-(piperazin-1-yl)-1H-benzo[d]imidazole]
remaining activity at 1 µM (CLK2(h)): 2% | remaining activity at 1 µM (CDK2/cyclinE(h)): 6% | remaining activity at 1 µM (EGFR(T790M, L858R)(h)): 11% | remaining activity at 1 µM (CDK3/cyclinE(h)): 16% | remaining activity at 1 µM (Ret(h)): 27% | remaining activity at 1 µM (EGFR(T790M)(h)): 28% | remaining activity at 1 µM (Lck(h)): 43% | remaining activity at 1 µM (p70S6K(h)): 56% | remaining activity at 1 µM (cKit(D816V)(h)): 61% | remaining activity at 1 µM (FGFR1(V561M)(h)): 69% | remaining activity at 1 µM (CHK2(h)): 76% | remaining activity at 1 µM (IKKβ(h)): 78% | remaining activity at 1 µM (Hck(h)): 79% | remaining activity at 1 µM (RIPK2(h)): 79% | remaining activity at 1 µM (MAPK2(h)): 81% | remaining activity at 1 µM (Met(Y1248D)(h)): 81% | remaining activity at 1 µM (PAK6(h)): 85% | remaining activity at 1 µM (MELK(h)): 86% | remaining activity at 1 µM (EphB1(h)): 87% | remaining activity at 1 µM (IGF-1R(h), activated): 87% | remaining activity at 1 µM (ULK2(h)): 88% | remaining activity at 1 µM (CK1γ3(h)): 89% | remaining activity at 1 µM (DAPK2(h)): 92% | remaining activity at 1 µM (CaMKIδ(h)): 94% | remaining activity at 1 µM (ZIPK(h)): 95% | remaining activity at 1 µM (PKCβII(h)): 98% | remaining activity at 1 µM (SAPK2a(h)): 99% | remaining activity at 1 µM (DAPK1(h)): 100% | remaining activity at 1 µM (EphB4(h)): 100% | remaining activity at 1 µM (DCAMKL2(h)): 101% | remaining activity at 1 µM (Plk3(h)): 101% | remaining activity at 1 µM (Ros(h)): 104% | remaining activity at 1 µM (DDR2(h)): 105% | remaining activity at 1 µM (ALK(h)): 106% | remaining activity at 1 µM (Abl(h)): 107% | remaining activity at 1 µM (BTK(h)): 107% | remaining activity at 1 µM (Tec(h) activated): 107% | remaining activity at 1 µM (JAK2(h)): 121% | remaining activity at 1 µM (Aurora-A(h)): 125%
